In the assay the target is T1, Phospho-EGFR in H1975 cell line (Homo sapiens, UniProt P00533, L858R/T790M).
T1 construct: H1975 cell line was obtained from American Type Culture Collection; host or cells: H1975
As to the kind of experiment: HTRF Phospo EGFR Assay (Cellular). It counts as cell-based. The settings on record: H1975 cells; 6 hours compound incubation in starving medium; HTRF anti-Phospho-EGFR readout. The protocol:
HTRF Phospo EGFR Assay (Cellular)
H1975 cell line was obtained from American Type Culture Collection (Manassas, Va., USA). Cells were maintained at 37° C., 5% CO2 in complete Media RPMI 1640 without phenol red containing 0.3 mg/ml glutamine, 100 IU/ml penicillin, and […] (Gibco) supplemented with 10% fetal bovine serum (FBS) (Gibco). Compounds were diluted into starving medium RPMI 1640 Media without phenol red containing 0.3 mg/ml glutamine, 100 IU/ml penicillin, and […] (Gibco).
Cells were cultured overnight in a 384-well white plate (8000 cells/well) using 8 μl of complete medium/well. Cells were washed two times with 20 μl of starving medium. Media was removed by tapping plates on tissue and subsequently 8 μl of fresh starving medium/well was added. Then 4 μl/well of the 3×compound solution, containing a half-log dilution series of the compound or DMSO in starving medium, were added to the cells. After 6 hours at 37° C., 5% CO2 cells were lysed by adding to the compound mix 4 μl/well of the supplemented lysis buffer, followed by incubation for 30 min at room temperature with shaking. Lysates were stored at −20° C. overnight. The following day plates were thawed and 2 μl of anti-Phospho-EGFR Cryptate and 2 μl of anti-Phospho-EGFR-d2 antibody solutions prepared in the detection buffer were added. The plates were then incubated for at least 4 h at room temperature before reading the fluorescence emission at 620 and 665 nm using PHERAstar FX plate reader (BMG Labtech).

pIC50: −log10 of the molar value. Where a name gives a salt, the structure may show the parent alone.

T1 sequence (P00533 25-1210 T790M/L858R): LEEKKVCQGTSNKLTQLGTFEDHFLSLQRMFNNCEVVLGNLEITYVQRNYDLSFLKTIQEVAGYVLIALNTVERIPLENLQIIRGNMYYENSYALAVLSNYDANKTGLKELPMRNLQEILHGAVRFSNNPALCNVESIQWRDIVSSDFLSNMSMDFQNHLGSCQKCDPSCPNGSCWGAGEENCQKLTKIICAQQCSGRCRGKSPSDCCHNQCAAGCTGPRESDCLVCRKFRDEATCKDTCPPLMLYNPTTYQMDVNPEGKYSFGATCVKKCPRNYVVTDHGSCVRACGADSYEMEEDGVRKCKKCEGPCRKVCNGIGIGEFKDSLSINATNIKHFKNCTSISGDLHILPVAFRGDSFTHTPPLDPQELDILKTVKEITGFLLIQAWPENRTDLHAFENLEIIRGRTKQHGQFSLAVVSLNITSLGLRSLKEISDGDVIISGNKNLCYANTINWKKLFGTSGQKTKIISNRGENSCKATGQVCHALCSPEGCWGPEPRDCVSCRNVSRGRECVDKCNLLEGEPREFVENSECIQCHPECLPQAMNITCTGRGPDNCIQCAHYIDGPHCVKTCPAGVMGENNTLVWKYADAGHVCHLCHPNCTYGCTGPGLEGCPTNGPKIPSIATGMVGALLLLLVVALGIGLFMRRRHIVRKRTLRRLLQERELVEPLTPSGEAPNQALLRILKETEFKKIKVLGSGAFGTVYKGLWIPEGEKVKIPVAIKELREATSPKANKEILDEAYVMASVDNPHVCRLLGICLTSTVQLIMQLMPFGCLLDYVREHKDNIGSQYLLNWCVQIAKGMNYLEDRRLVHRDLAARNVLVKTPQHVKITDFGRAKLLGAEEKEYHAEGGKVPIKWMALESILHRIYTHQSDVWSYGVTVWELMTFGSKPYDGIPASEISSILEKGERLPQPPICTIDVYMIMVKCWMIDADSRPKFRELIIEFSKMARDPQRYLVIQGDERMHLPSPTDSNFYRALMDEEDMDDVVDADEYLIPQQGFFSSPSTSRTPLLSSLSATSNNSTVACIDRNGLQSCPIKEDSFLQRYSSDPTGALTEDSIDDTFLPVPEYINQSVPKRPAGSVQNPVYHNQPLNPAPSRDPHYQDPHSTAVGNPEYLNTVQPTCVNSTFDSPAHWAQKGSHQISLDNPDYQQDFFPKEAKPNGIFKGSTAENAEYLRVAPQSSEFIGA

What is called pIC50 is the IC50 on a negative log10 scale, so that one unit is a factor of ten. Higher therefore signals a low IC50. In turn, `O=C(Nc1nccs1)C(c1ccccc1)N1Cc2ccc(C#Cc3ccccc3)cc2C1=O` (racemic) [Example 1, (2RS)-2-[1-Oxo-6-(2-phenylethynyl)isoindolin-2-yl]-2-phenyl-N-thiazol-2-yl-acetamide] gave a negative-log IC50 (pIC50) of 7.35. To `O=C(Nc1nccs1)C(c1ccccc1)N1Cc2ccc(C#Cc3cccnc3)cc2C1=O` (racemic) [Example 2, (2RS)-2-[1-oxo-6-[2-(3-pyridyl)ethynyl]isoindolin-2-yl]-2-phenyl-N-thiazol-2-yl-acetamide] belongs 7.38; to `Nc1ccc(C#Cc2ccc3c(c2)C(=O)N(C(C(=O)Nc2nccs2)c2ccccc2)C3)cn1` (racemic) [Example 3, (2RS)-2-[6-[2-(6-Amino-3-pyridyl)ethynyl]-1-oxo-isoindolin-2-yl]-2-phenyl-N-thiazol-2-yl-acetamide], 7.49. The molecule `Nc1ccc(C#Cc2ccc3c(c2)C(=O)N(C(C(=O)Nc2nccs2)c2cccc(F)c2)C3)cn1` (racemic) [Example 4, (2RS)-2-[6-[2-(6-Amino-3-pyridyl)ethynyl]-1-oxo-isoindolin-2-yl]-2-(3-fluorophenyl)-N-thiazol-2-yl-acetamide] gave a pIC50 of 8.05. As for `Nc1ccc(C#Cc2ccc3c(c2)C(=O)N(C(C(=O)Nc2nccs2)c2cc(F)ccc2F)C3)cn1` (racemic) [Example 5, (2RS)-2-[6-[2-(6-Amino-3-pyridyl)ethynyl]-1-oxo-isoindolin-2-yl]-2-(2,5-difluorophenyl)-N-thiazol-2-yl-acetamide], the pIC50 is 8.15. For the molecule `NCc1ccc(C#Cc2ccc3c(c2)C(=O)N(C(C(=O)Nc2nccs2)c2ccccc2)C3)cc1` (racemic) [Example 6, (2RS)-2-[6-[2-[4-(Aminomethyl)phenyl]ethynyl]-1-oxo-isoindolin-2-yl]-2-phenyl-N-thiazol-2-yl-acetamide], the negative-log IC50 (pIC50) is 7.46. In the case of `CC(=O)Nc1ccc(C#Cc2ccc3c(c2)C(=O)N(C(C(=O)Nc2nccs2)c2ccccc2)C3)cn1` (racemic) [Example 7, (2RS)-2-[6-[2-(6-Acetamido-3-pyridyl)ethynyl]-1-oxo-isoindolin-2-yl]-2-phenyl-N-thiazol-2-yl-acetamide] it was 8.00. `Nc1ccc(C#Cc2ccc3c(c2)C(=O)N(C(C(=O)Nc2nccs2)c2n[nH]c4c2CCC4)C3)cn1` (racemic) [Example 8, (2RS)-2-[6-[2-(6-Amino-3-pyridyl)ethynyl]-1-oxo-isoindolin-2-yl]-2-(1,4,5,6-tetrahydrocyclopenta[c]pyrazol-3-yl)-N-thiazol-2-yl-acetamide] gave a pIC50 of 8.72. `CNC(=O)c1ccc(C#Cc2ccc3c(c2)C(=O)N(C(C(=O)Nc2nccs2)c2ccccc2)C3)cn1` (racemic) [Example 9, N-Methyl-5-[2-[3-oxo-2-[(1RS)-2-oxo-1-phenyl-2-(thiazol-2-ylamino)ethyl]isoindolin-5-yl]ethynyl]pyridine-2-carboxamide]: the pIC50 is 7.80. In the case of `O=C(Nc1nccs1)C(c1ccccc1)N1Cc2ccc(C#Cc3ccc(CN4CCNCC4)cc3)cc2C1=O` (racemic) [Example 10, (2RS)-2-[1-Oxo-6-[2-[4-(piperazin-1-ylmethyl)phenyl]ethynyl]isoindolin-2-yl]-2-phenyl-N-thiazol-2-yl-acetamide hydrochloride] it was 7.37; in that of `O=C(Nc1nccs1)C(c1ccccc1)N1Cc2ccc(C#Cc3ccc(CN4CCOCC4)cc3)cc2C1=O` (racemic) [Example 11, (2RS)-2-[6-[2-[4-(Morpholinomethyl)phenyl]ethynyl]-1-oxo-isoindolin-2-yl]-2-phenyl-N-thiazol-2-yl-acetamide], 7.21. To `CC(=O)N1CCN(Cc2ccc(C#Cc3ccc4c(c3)C(=O)N(C(C(=O)Nc3nccs3)c3ccccc3)C4)cc2)CC1` (racemic) [Example 12, (2RS)-2-[6-[2-[4-[(4-acetylpiperazin-1-yl)methyl]phenyl]ethynyl]-1-oxo-isoindolin-2-yl]-2-phenyl-N-thiazol-2-1-acetamide] belongs 7.85; to `CCN1CCN(Cc2ccc(C#Cc3ccc4c(c3)C(=O)N(C(C(=O)Nc3nccs3)c3ccccc3)C4)cc2)CC1` (racemic) [Example 13, (2RS)-2-[6-[2-[4-[(4-Ethylpiperazin-1-yl)methyl]phenyl]ethynyl]-1-oxo-isoindolin-2-yl]-2-phenyl-N-thiazol-2-yl-acetamide], 7.16; to `O=C(Nc1nccs1)C(c1ccccc1)N1Cc2ccc(C#Cc3ccc(C(=O)N4CCOCC4)nc3)cc2C1=O` (racemic) [Example 14, (2RS)-2-[6-[2-[6-(Morpholine-4-carbonyl)-3-pyridyl]ethynyl]-1-oxo-isoindolin-2-yl]-2-phenyl-N-thiazol-2-yl-acetamide], 7.29.

Molecule `Nc1ccc(C#Cc2ccc3c(c2)C(=O)N(C(C(=O)Nc2nccs2)c2cc(F)ccc2O)C3)cn1` (racemic) [Example 15, (2RS)-2-[6-[2-(6-Amino-3-pyridyl)ethynyl]-1-oxo-isoindolin-2-yl]-2-(5-fluoro-2-hydroxy-phenyl)-N-thiazol-2-yl-acetamide] showed a negative-log IC50 (pIC50) of 9.00. In the case of `O=C(Nc1nccs1)C(c1cc(F)ccc1O)N1Cc2ccc(C#Cc3cccnc3)cc2C1=O` (racemic) [Example 16, (2RS)-2-(5-Fluoro-2-hydroxy-phenyl)-2-[1-oxo-6-[2-(3-pyridyl)ethynyl]isoindolin-2-yl]-N-thiazol-2-yl-acetamide] it was 9.00; in that of `O=C(Nc1nccs1)C(c1cc(F)ccc1O)N1Cc2ccc(C#Cc3ccccc3)cc2C1=O` (racemic) [Example 17, (2RS)-2-(5-Fluoro-2-hydroxy-phenyl)-2-[1-oxo-6-(2-phenylethynyl)isoindolin-2-yl]-N-thiazol-2-yl-acetamide], 8.22.

Take `Nc1ncc(C#Cc2ccc3c(c2)C(=O)N(C(C(=O)Nc2nccs2)c2cc(F)ccc2O)C3)cn1` (racemic) [Example 18, (2RS)-2-[6-[2-(2-Aminopyrimidin-5-yl)ethynyl]-1-oxo-isoindolin-2-yl]-2-(5-fluoro-2-hydroxy-phenyl)-N-thiazol-2-yl-acetamide]: the pIC50 was 8.70. To `O=C(Nc1nccs1)C(c1cc(F)ccc1O)N1Cc2ccc(C#Cc3ccnc(Cl)c3)cc2C1=O` (racemic) [Example 19, (2RS)-2-[6-[2-(2-Chloro-4-pyridyl)ethynyl]-1-oxo-isoindolin-2-yl]-2-(5-fluoro-2-hydroxy-phenyl)-N-thiazol-2-yl-acetamide] belongs 8.52; to `Nc1ccc(C#Cc2ccc3c(c2)C(=O)N(C(C(=O)Nc2ccccn2)c2cc(F)ccc2O)C3)cn1` (racemic) [Example 20, (2RS)-2-[6-[2-(6-Amino-3-pyridyl)ethynyl]-1-oxo-isoindolin-2-yl]-2-(5-fluoro-2-hydroxy-phenyl)-N-(2-pyridyl)acetamide], 8.40. In the case of `Cc1c(C#Cc2ccc(N)nc2)ccc2c1C(=O)N(C(C(=O)Nc1nccs1)c1cc(F)ccc1O)C2` (racemic) [Example 21, (2RS)-2-[6-[2-(6-Amino-3-pyridyl)ethynyl]-7-methyl-1-oxo-isoindolin-2-yl]-2-(5-fluoro-2-hydroxy-phenyl)-N-thiazol-2-yl-acetamide] it was 8.52; in that of `Cc1c(C#Cc2ccc(N)nc2)ccc2c1C(=O)N(C(C(=O)Nc1ccccn1)c1cc(F)ccc1O)C2` (racemic) [Example 22, (2RS)-2-[6-[2-(6-Amino-3-pyridyl)ethynyl]-7-methyl1-oxo-isoindolin-2-yl]-2-(5-fluoro-2-hydroxy-phenyl)-N-(2-pyridyl)acetamide], 8.52. For `Nc1ccc(C#Cc2ccc3c(c2)C(=O)N(C(C(=O)Nc2nccs2)c2cc(Cl)ccc2O)C3)cn1` (racemic) [Example 23, (2RS)-2-[6-[2-(6-Amino-3-pyridyl)ethynyl]-1-oxo-isoindolin-2-yl]-2-(5-chloro-2-hydroxy-phenyl)-N-thiazol-2-yl-acetamide], the pIC50 is 8.40. Molecule `Nc1ccc(C#Cc2ccc3c(c2)C(=O)N(C(C(=O)Nc2nccs2)c2ccccc2O)C3)cn1` (racemic) [Example 24, (2RS)-2-[6-[2-(6-Amino-3-pyridyl)ethynyl]-1-oxo-isoindolin-2-yl]-2-(2-hydroxyphenyl)-N-thiazol-2-yl-acetamide] gave a negative logarithm of the IC50 (pIC50) of 8.40. In the case of `Nc1ccc(C#Cc2ccc3c(c2)C(=O)N(C(C(=O)Nc2nccs2)c2ncccc2O)C3)cn1` (racemic) [Example 25, (2RS)-2-[6-[2-(6-Amino-3-pyridyl)ethynyl]-1-oxo-isoindolin-2-yl]-2-(3-hydroxy-2-pyridyl)-N-thiazol-2-yl-acetamide trifluoroacetate] it was 8.70; in that of `O=C(Nc1nccs1)C(c1cc(F)ccc1O)N1Cc2ccc(C#Cc3cccnc3)c(F)c2C1=O` (racemic) [Example 26, (2RS)-2-(5-Fluoro-2-hydroxy-phenyl)-2-[7-fluoro-1-oxo-6-[2-(3-pyridyl)ethynyl]isoindolin-2-yl]-N-thiazol-2-yl-acetamide], 8.70.

The record behind these values is patent US11117890B2, “Substituted isoindole allosteric EGFR inhibitors” (Hoffmann-La Roche Inc., priority 2017, dated 2021).
